Experimental data as given in PubChem BioAssay AID2060618 (Molecular Pharmacology Branch, DTP, NCI, 2025).
pIC50: −log10 of the molar value.

System: 454973-116-R2-J3-PDC spheroids, percent test/control viability
Assay: Anticancer human tumor 454973-116-R2-J3-PDC patient-derived pancreatic carcinoma cell line growth inhibition [CLK]
Conditions: spheroids with HUVEC and MSC; for pIC50: curve of first compound; for viability, T/C: stronger effect = lower value; active = viability on the fitted dose curve at most 10% of control; inactive = the rest
How it was run: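 Patient-derived tumor cells grown as complex spheroids with HUVEC endothelial cells and mesenchymal stem cells, treated with drug combinations. Concentrations descend in half-log steps from near clinical Cmax, or from 10 microM if Cmax unknown.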

[1] = second compound 0.0316 µM, first compound 0.0316 µM
[2] = second compound 0.0316 µM, first compound 0.1 µM
[3] = second compound 0.0316 µM, first compound 0.316 µM
[4] = second compound 0.0316 µM, first compound 1 µM
[5] = second compound 0.0316 µM, first compound 3.16 µM
[6] = second compound 0.0316 µM, first compound 10 µM
[7] = second compound 0.1 µM, first compound 0.0316 µM
[8] = second compound 0.1 µM, first compound 0.1 µM
[9] = second compound 0.1 µM, first compound 0.316 µM
[10] = second compound 0.1 µM, first compound 1 µM
[11] = second compound 0.1 µM, first compound 3.16 µM
[12] = second compound 0.1 µM, first compound 10 µM
[13] = second compound 0.316 µM, first compound 0.0316 µM
[14] = second compound 0.316 µM, first compound 0.1 µM
[15] = second compound 0.316 µM, first compound 0.316 µM
[16] = second compound 0.316 µM, first compound 1 µM
[17] = second compound 0.316 µM, first compound 3.16 µM
[18] = second compound 0.316 µM, first compound 10 µM
[19] = second compound 1 µM, first compound 0.0316 µM
[20] = second compound 1 µM, first compound 0.1 µM
[21] = second compound 1 µM, first compound 0.316 µM
[22] = second compound 1 µM, first compound 1 µM
[23] = second compound 1 µM, first compound 3.16 µM
[24] = second compound 1 µM, first compound 10 µM
[25] = second compound 3.16 µM, first compound 0.0316 µM
[26] = second compound 3.16 µM, first compound 0.1 µM
[27] = second compound 3.16 µM, first compound 0.316 µM
[28] = second compound 3.16 µM, first compound 1 µM
[29] = second compound 3.16 µM, first compound 3.16 µM
[30] = second compound 3.16 µM, first compound 10 µM
[31] = second compound 10 µM, first compound 0.0316 µM
[32] = second compound 10 µM, first compound 0.1 µM
[33] = second compound 10 µM, first compound 0.316 µM
[34] = second compound 10 µM, first compound 1 µM
[35] = second compound 10 µM, first compound 3.16 µM
[36] = second compound 10 µM, first compound 10 µM
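Also: spheroids exposed to compounds for 7 days before readout.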

C#Cc1c(F)ccc2cc(O)cc(-c3ncc4c(N5CC6CCC(C5)N6)nc(OCC56CCCN5CC(F)C6)nc4c3F)c12 (stereo unspecified) + CN1CCN(c2cc(C(=O)Nc3cc4cc(-c5cnn(C)c5)ccc4cn3)ccn2)CC1
> 7.50: pIC50 (second compound 0.1 µM) | pIC50 (second compound 0.316 µM) | pIC50 (second compound 1 µM) | pIC50 (second compound 3.16 µM) | pIC50 (second compound 10 µM)
inactive: viability, T/C [1] 51% | viability, T/C [2] 40.5% | viability, T/C [3] 29.7% | viability, T/C [4] 30.5% | viability, T/C [5] 26.4% | viability, T/C [6] 21.7% | viability, T/C [7] 42% | viability, T/C [8] 35.6% | viability, T/C [9] 29.6% | viability, T/C [10] 21.9% | viability, T/C [11] 22.5% | viability, T/C [12] 16.6%
7.46: pIC50 (second compound 0.0316 µM)
active: viability, T/C [13] 2.95% | viability, T/C [14] 4.54% | viability, T/C [15] 2.86% | viability, T/C [16] 2.52% | viability, T/C [17] 2.6% | viability, T/C [18] 2.24% | viability, T/C [19] 0.11% | viability, T/C [20] 0.13% | viability, T/C [21] 0.46% | viability, T/C [22] 0.08% | viability, T/C [23] 0.12% | viability, T/C [24] 0.4% | viability, T/C [25] 0.06% | viability, T/C [26] 0.9% | viability, T/C [27] 0.56% | viability, T/C [28] 0.07% | viability, T/C [29] 0.09% | viability, T/C [30] 1.64% | viability, T/C [31] 0.11% | viability, T/C [32] 0.13% | viability, T/C [33] 0.73% | viability, T/C [34] 0.56% | viability, T/C [35] 0.92% | viability, T/C [36] 0.5%

CC(CO)NC(=O)c1cc(-c2ccc(Cl)cc2)nn(-c2cnn(C)c2)c1=O (stereo unspecified) + CN1CCN(c2cc(C(=O)Nc3cc4cc(-c5cnn(C)c5)ccc4cn3)ccn2)CC1
active: viability, T/C [13] 1.94% | viability, T/C [14] 2.45% | viability, T/C [15] 2.27% | viability, T/C [16] 2.92% | viability, T/C [17] 2.59% | viability, T/C [18] 4.2% | viability, T/C [19] 0.11% | viability, T/C [20] 0.93% | viability, T/C [21] 2.47% | viability, T/C [22] 0.11% | viability, T/C [23] 0.09% | viability, T/C [24] 0.42% | viability, T/C [25] 0.17% | viability, T/C [26] 0.17% | viability, T/C [27] 0.24% | viability, T/C [28] 0.18% | viability, T/C [29] 0.16% | viability, T/C [30] 0.13% | viability, T/C [31] 1.96% | viability, T/C [32] 0.22% | viability, T/C [33] 0.37% | viability, T/C [34] 2.01% | viability, T/C [35] 0.24% | viability, T/C [36] 0.36%
< 5.00: pIC50 (second compound 0.0316 µM) | pIC50 (second compound 0.1 µM)
inactive: viability, T/C [1] 97.5% | viability, T/C [2] 97.8% | viability, T/C [3] 95.6% | viability, T/C [4] 105% | viability, T/C [5] 96.5% | viability, T/C [6] 68.4% | viability, T/C [7] 76.9% | viability, T/C [8] 88.5% | viability, T/C [9] 80.6% | viability, T/C [10] 86% | viability, T/C [11] 82% | viability, T/C [12] 54.2%
> 7.50: pIC50 (second compound 0.316 µM) | pIC50 (second compound 1 µM) | pIC50 (second compound 3.16 µM) | pIC50 (second compound 10 µM)

COc1c(OCCCN2CCOCC2)ccc2c3n(c(=NC(=O)c4cnc(N)nc4)nc12)CCN3 + CN1CCN(c2cc(C(=O)Nc3cc4cc(-c5cnn(C)c5)ccc4cn3)ccn2)CC1
active: viability, T/C [4] 6.87% | viability, T/C [9] 9.33% | viability, T/C [10] 4.74% | viability, T/C (second compound 0.316 µM, first compound 0.00316 µM) 1.28% | viability, T/C (second compound 0.316 µM, first compound 0.01 µM) 0.96% | viability, T/C [13] 1.21% | viability, T/C [14] 1.68% | viability, T/C [15] 0.41% | viability, T/C [16] 0.17% | viability, T/C (second compound 1 µM, first compound 0.00316 µM) 0.15% | viability, T/C (second compound 1 µM, first compound 0.01 µM) 0.11% | viability, T/C [19] 0.55% | viability, T/C [20] 0.06% | viability, T/C [21] 1.84% | viability, T/C [22] 1.26% | viability, T/C (second compound 3.16 µM, first compound 0.00316 µM) 0.21% | viability, T/C (second compound 3.16 µM, first compound 0.01 µM) 0.99% | viability, T/C [25] 2.18% | viability, T/C [26] 0.08% | viability, T/C [27] 1.65% | viability, T/C [28] 0.11% | viability, T/C (second compound 10 µM, first compound 0.00316 µM) 0.1% | viability, T/C (second compound 10 µM, first compound 0.01 µM) 1.86% | viability, T/C [31] 0.15% | viability, T/C [32] 0.42% | viability, T/C [33] 0.43% | viability, T/C [34] 0.62%
> 8.50: pIC50 (second compound 0.316 µM) | pIC50 (second compound 1 µM) | pIC50 (second compound 3.16 µM) | pIC50 (second compound 10 µM)
7.66: pIC50 (second compound 0.1 µM)
7.02: pIC50 (second compound 0.0316 µM)
inactive: viability, T/C (second compound 0.0316 µM, first compound 0.00316 µM) 83.4% | viability, T/C (second compound 0.0316 µM, first compound 0.01 µM) 84.3% | viability, T/C [1] 77.2% | viability, T/C [2] 46.6% | viability, T/C [3] 21.7% | viability, T/C (second compound 0.1 µM, first compound 0.00316 µM) 65.2% | viability, T/C (second compound 0.1 µM, first compound 0.01 µM) 63.8% | viability, T/C [7] 43.4% | viability, T/C [8] 18.1%
